From ChEMBL document CHEMBL4649982, “Selective targeting of Bromodomains of the Bromodomain-PHD Fingers family impairs osteoclast differentiation” (ACS Chem Biol, 2017)
Several values for one entry are separate records, joined by “and”; a condition that tells them apart may be missing. Equal values may be shown once.

What was measured:
[1] = target: Protein polybromo-1 (Homo sapiens) (UniProt Q86U86); conditions: Compound concentration 10.0 uM, Protein concentration 2.0 uM
[2] = target: Transcription intermediary factor 1-alpha (Homo sapiens) (UniProt O15164); assay: Thermal Shift Assay. Domain start/stop: N790-P971; conditions: Compound concentration 10.0 uM, Protein concentration 2.0 uM
Transcription intermediary factor 1-alpha (Homo sapiens), sequence (O15164 whole entry): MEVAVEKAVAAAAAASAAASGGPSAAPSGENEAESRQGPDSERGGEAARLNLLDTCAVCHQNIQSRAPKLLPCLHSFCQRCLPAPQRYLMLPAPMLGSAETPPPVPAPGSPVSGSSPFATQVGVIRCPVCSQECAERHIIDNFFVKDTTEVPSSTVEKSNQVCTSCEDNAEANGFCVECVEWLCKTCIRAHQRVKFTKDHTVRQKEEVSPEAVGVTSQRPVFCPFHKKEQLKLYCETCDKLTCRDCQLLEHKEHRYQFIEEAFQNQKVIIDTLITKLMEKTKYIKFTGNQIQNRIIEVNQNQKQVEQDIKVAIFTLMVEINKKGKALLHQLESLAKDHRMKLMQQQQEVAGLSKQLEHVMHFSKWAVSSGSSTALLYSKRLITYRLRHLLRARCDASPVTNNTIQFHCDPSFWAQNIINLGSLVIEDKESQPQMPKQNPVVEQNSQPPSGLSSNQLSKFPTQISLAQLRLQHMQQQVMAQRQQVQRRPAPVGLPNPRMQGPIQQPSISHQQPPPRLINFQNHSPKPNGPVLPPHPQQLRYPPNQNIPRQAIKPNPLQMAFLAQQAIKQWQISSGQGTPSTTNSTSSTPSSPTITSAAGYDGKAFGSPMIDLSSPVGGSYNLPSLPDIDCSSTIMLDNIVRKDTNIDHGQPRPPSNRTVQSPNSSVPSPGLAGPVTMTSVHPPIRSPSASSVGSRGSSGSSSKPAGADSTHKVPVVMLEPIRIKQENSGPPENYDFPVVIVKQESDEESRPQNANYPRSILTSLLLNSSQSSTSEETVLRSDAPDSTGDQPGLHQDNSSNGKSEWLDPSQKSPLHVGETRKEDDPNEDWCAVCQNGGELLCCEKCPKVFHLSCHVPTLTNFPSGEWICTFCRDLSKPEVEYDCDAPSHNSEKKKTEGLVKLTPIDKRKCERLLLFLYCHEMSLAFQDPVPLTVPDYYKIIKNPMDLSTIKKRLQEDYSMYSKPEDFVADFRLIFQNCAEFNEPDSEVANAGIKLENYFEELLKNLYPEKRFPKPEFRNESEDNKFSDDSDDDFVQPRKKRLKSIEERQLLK

[3] = target: Protein polybromo-1 (Homo sapiens) (UniProt Q86U86); conditions: Compound concentration 10.0 uM, Protein concentration 2.0 uM; remark: listed apart in the source
[4] = target: ATPase family AAA domain-containing protein 2B (Homo sapiens) (UniProt Q9ULI0); conditions: Compound concentration 10.0 uM, Protein concentration 2.0 uM
[5] = target: Nucleosome-remodeling factor subunit BPTF (Homo sapiens) (UniProt Q12830); conditions: Compound concentration 10.0 uM, Protein concentration 2.0 uM
[6] = target: Transcription intermediary factor 1-beta (Homo sapiens) (UniProt Q13263); conditions: Compound concentration 10.0 uM, Protein concentration 2.0 uM
[7] = target: PH-interacting protein (Homo sapiens) (UniProt Q8WWQ0); conditions: Compound concentration 10.0 uM, Protein concentration 2.0 uM
[8] = target: Transcription initiation factor TFIID subunit 1 (Homo sapiens) (UniProt P21675); conditions: Compound concentration 10.0 uM, Protein concentration 2.0 uM
Transcription initiation factor TFIID subunit 1 (Homo sapiens), sequence (P21675 whole entry): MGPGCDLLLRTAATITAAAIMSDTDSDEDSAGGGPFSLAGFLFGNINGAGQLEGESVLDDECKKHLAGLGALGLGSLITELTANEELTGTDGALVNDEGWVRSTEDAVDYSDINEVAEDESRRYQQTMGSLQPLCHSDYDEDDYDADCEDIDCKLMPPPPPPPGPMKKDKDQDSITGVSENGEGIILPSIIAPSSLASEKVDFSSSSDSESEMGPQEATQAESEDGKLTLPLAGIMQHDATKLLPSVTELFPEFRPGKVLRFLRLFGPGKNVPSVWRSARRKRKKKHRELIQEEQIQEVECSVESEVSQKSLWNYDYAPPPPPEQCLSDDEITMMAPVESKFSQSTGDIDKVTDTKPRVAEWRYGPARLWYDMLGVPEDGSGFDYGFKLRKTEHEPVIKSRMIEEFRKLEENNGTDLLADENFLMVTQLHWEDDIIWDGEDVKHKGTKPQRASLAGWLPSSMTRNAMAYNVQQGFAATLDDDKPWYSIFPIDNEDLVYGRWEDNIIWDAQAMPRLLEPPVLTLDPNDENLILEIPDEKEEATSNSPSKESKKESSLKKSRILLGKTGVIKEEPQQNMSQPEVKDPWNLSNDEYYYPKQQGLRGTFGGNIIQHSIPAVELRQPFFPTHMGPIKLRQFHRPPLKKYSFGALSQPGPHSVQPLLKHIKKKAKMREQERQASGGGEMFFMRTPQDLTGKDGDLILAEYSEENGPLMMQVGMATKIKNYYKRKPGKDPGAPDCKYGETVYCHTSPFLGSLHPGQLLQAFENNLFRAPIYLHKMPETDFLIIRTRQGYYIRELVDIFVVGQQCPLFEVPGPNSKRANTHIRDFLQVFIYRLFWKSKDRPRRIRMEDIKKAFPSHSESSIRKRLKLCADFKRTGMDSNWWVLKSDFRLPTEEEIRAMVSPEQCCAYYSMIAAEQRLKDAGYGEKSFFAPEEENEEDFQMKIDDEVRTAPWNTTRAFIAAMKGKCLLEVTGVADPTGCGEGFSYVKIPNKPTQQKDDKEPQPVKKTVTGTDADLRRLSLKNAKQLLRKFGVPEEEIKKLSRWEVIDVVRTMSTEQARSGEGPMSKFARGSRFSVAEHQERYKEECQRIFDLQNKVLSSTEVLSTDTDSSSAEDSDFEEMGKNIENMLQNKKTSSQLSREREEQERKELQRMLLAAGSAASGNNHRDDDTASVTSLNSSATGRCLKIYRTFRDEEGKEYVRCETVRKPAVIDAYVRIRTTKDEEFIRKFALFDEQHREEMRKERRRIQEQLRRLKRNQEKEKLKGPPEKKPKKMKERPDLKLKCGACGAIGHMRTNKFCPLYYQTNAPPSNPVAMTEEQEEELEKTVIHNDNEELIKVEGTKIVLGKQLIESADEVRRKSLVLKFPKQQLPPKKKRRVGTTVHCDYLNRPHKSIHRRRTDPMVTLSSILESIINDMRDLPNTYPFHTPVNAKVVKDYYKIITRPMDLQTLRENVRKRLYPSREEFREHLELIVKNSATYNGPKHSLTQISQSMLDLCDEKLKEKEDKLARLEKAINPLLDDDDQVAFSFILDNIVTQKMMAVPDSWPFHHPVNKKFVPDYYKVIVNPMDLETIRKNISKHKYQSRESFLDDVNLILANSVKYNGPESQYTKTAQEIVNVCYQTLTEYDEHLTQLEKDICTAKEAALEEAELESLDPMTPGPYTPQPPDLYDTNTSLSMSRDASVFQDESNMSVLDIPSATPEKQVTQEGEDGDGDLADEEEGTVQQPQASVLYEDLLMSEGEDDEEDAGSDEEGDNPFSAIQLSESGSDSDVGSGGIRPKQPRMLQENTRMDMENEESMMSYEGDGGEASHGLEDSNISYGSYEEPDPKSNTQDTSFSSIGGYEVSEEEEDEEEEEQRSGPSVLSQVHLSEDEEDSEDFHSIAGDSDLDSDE

[9] = target: Protein polybromo-1 (Homo sapiens) (UniProt Q86U86); conditions: Compound concentration 10.0 uM, Protein concentration 2.0 uM; remark: listed apart in the source
[10] = target: Bromodomain-containing protein 2 (Homo sapiens) (UniProt P25440); conditions: Compound concentration 10.0 uM, Protein concentration 2.0 uM
[11] = target: T1, E3 ubiquitin-protein ligase TRIM33 (Homo sapiens) (UniProt Q9UPN9); assay: Thermal Shift Assay. Domain start/stop: D882-P1073; conditions: Compound concentration 10.0 uM
T1 sequence (whole entry): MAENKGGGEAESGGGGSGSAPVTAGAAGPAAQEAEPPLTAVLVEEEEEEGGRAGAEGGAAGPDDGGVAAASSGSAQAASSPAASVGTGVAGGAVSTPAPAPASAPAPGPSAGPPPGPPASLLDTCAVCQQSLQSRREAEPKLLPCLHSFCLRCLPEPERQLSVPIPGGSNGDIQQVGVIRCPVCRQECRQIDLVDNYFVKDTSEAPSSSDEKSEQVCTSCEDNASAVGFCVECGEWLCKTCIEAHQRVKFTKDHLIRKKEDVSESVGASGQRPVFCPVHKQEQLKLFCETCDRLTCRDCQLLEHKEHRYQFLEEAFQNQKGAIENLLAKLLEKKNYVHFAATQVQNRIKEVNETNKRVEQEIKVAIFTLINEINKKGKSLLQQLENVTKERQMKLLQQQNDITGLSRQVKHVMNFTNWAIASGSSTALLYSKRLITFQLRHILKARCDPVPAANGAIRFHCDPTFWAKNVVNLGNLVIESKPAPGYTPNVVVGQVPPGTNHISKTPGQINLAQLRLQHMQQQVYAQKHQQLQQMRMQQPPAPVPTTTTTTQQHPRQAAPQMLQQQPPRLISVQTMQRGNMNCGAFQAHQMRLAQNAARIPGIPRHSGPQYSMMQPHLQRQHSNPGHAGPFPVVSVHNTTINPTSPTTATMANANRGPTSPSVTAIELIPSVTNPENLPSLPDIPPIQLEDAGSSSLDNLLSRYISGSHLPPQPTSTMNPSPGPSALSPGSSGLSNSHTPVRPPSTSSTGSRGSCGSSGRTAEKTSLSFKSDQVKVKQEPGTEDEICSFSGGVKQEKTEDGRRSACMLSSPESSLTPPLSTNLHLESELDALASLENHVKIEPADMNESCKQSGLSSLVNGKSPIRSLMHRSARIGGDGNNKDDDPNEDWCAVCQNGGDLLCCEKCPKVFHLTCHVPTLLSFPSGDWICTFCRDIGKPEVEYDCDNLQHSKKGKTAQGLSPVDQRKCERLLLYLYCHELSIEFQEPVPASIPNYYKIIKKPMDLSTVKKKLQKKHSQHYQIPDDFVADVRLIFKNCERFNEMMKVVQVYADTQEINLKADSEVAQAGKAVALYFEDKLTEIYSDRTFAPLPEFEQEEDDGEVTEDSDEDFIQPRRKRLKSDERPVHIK

[12] = target: Bromodomain-containing protein 3 (Homo sapiens) (UniProt Q15059); conditions: Compound concentration 10.0 uM, Protein concentration 2.0 uM
[13] = target: Bromodomain adjacent to zinc finger domain protein 2A (Homo sapiens) (UniProt Q9UIF9); conditions: Compound concentration 10.0 uM, Protein concentration 2.0 uM
[14] = target: Histone acetyltransferase KAT2B (Homo sapiens) (UniProt Q92831); conditions: Compound concentration 10.0 uM, Protein concentration 2.0 uM
[15] = target: Protein polybromo-1 (Homo sapiens) (UniProt Q86U86); conditions: Compound concentration 10.0 uM, Protein concentration 2.0 uM; remark: listed apart in the source
[16] = target: Bromodomain-containing protein 1 (Homo sapiens, UniProt O95696)
[17] = target: Histone-lysine N-methyltransferase 2A (Homo sapiens) (UniProt Q03164); conditions: Compound concentration 10.0 uM, Protein concentration 2.0 uM
[18] = target: Bromodomain-containing protein 9 (Homo sapiens) (UniProt Q9H8M2); conditions: Compound concentration 10.0 uM, Protein concentration 2.0 uM
[19] = target: Transcription intermediary factor 1-alpha (Homo sapiens) (UniProt O15164); conditions: Compound concentration 10.0 uM, Protein concentration 2.0 uM
[20] = target: CREB-binding protein (Homo sapiens) (UniProt Q92793); conditions: Compound concentration 10.0 uM, Protein concentration 2.0 uM
[21] = target: ATPase family AAA domain-containing protein 2 (Homo sapiens) (UniProt Q6PL18); conditions: Compound concentration 10.0 uM, Protein concentration 2.0 uM
[22] = target: Chromatin remodeling regulator CECR2 (Homo sapiens) (UniProt Q9BXF3); conditions: Compound concentration 10.0 uM, Protein concentration 2.0 uM
[23] = target: Bromodomain-containing protein 3 (Homo sapiens) (UniProt Q15059); conditions: Compound concentration 10.0 uM, Protein concentration 2.0 uM; remark: listed apart in the source
[24] = target: Tyrosine-protein kinase BAZ1B (Homo sapiens) (UniProt Q9UIG0); conditions: Compound concentration 10.0 uM, Protein concentration 2.0 uM
[25] = target: Bromodomain and WD repeat-containing protein 3 (Homo sapiens) (UniProt Q6RI45); conditions: Compound concentration 10.0 uM, Protein concentration 2.0 uM
[26] = target: Bromodomain and PHD finger-containing protein 3 (Homo sapiens) (UniProt Q9ULD4); conditions: Compound concentration 10.0 uM, Protein concentration 2.0 uM
[27] = target: Bromodomain-containing protein 1 (Homo sapiens) (UniProt O95696); conditions: Compound concentration 10.0 uM, Protein concentration 2.0 uM
Peregrin (Homo sapiens) [28] = target: Peregrin (Homo sapiens) (UniProt P55201); conditions: Compound concentration 10.0 uM, Protein concentration 2.0 uM
[29] = target: Histone acetyltransferase p300 (Homo sapiens) (UniProt Q09472); conditions: Compound concentration 10.0 uM, Protein concentration 2.0 uM
[30] = target: T1, E3 ubiquitin-protein ligase TRIM33 (Homo sapiens); conditions: Compound concentration […], Protein concentration 200.0 uM
[31] = target: Transcription initiation factor TFIID subunit 1-like (Homo sapiens) (UniProt Q8IZX4); conditions: Compound concentration 10.0 uM, Protein concentration 2.0 uM
[32] = target: Protein polybromo-1 (Homo sapiens) (UniProt Q86U86); conditions: Compound concentration 10.0 uM, Protein concentration 2.0 uM; remark: listed apart in the source
[33] = target: Bromodomain testis-specific protein (Homo sapiens) (UniProt Q58F21); conditions: Compound concentration 10.0 uM, Protein concentration 2.0 uM
[34] = target: Chromatin remodeling regulator CECR2 (Homo sapiens) (UniProt Q9BXF3); conditions: Compound concentration 10.0 uM, Protein concentration 2.0 uM; remark: listed apart in the source
[35] = target: Bromodomain-containing protein 7 (Homo sapiens) (UniProt Q9NPI1); conditions: Compound concentration 10.0 uM, Protein concentration 2.0 uM
[36] = target: Bromodomain adjacent to zinc finger domain protein 1A (Homo sapiens) (UniProt Q9NRL2); conditions: Compound concentration 10.0 uM, Protein concentration 2.0 uM
[37] = target: Transcription initiation factor TFIID subunit 1-like (Homo sapiens) (UniProt Q8IZX4); conditions: Compound concentration 10.0 uM, Protein concentration 2.0 uM; remark: listed apart in the source
[38] = target: Nuclear body protein SP140 (Homo sapiens) (UniProt Q13342); conditions: Compound concentration 10.0 uM, Protein concentration 2.0 uM
[39] = target: Bromodomain-containing protein 4 (Homo sapiens) (UniProt O60885); conditions: Compound concentration 10.0 uM, Protein concentration 2.0 uM
[40] = target: Bromodomain-containing protein 2 (Homo sapiens) (UniProt P25440); conditions: Compound concentration 10.0 uM, Protein concentration 2.0 uM; remark: listed apart in the source
[41] = target: Histone acetyltransferase KAT2A (Homo sapiens) (UniProt Q92830); conditions: Compound concentration 10.0 uM, Protein concentration 2.0 uM
[42] = target: Nuclear body protein SP140-like protein (Homo sapiens) (UniProt Q9H930); conditions: Compound concentration 10.0 uM, Protein concentration 2.0 uM
[43] = target: Protein polybromo-1 (Homo sapiens) (UniProt Q86U86); conditions: Compound concentration 10.0 uM, Protein concentration 2.0 uM; remark: listed apart in the source
[44] = target: Histone-lysine N-methyltransferase ASH1L (Homo sapiens) (UniProt Q9NR48); conditions: Compound concentration 10.0 uM, Protein concentration 2.0 uM
[45] = target: Bromodomain and WD repeat-containing protein 1 (Homo sapiens) (UniProt Q9NSI6); conditions: Compound concentration 10.0 uM, Protein concentration 2.0 uM
[46] = target: SWI/SNF-related matrix-associated actin-dependent regulator of chromatin subfamily A member 2 (Homo sapiens) (UniProt P51531); conditions: Compound concentration 10.0 uM, Protein concentration 2.0 uM
[47] = target: Bromodomain testis-specific protein (Homo sapiens) (UniProt Q58F21); conditions: Compound concentration 10.0 uM, Protein concentration 2.0 uM; remark: listed apart in the source
Peregrin (Homo sapiens) [48] = target: Peregrin (Homo sapiens) (UniProt P55201); conditions: Compound concentration 10.0 uM, Protein concentration 2.0 uM; remark: listed apart in the source
[49] = target: SWI/SNF-related matrix-associated actin-dependent regulator of chromatin subfamily A member 4 (Homo sapiens) (UniProt P51532); conditions: Compound concentration 10.0 uM, Protein concentration 2.0 uM
[50] = target: Bromodomain adjacent to zinc finger domain protein 2B (Homo sapiens) (UniProt Q9UIF8); conditions: Compound concentration 10.0 uM, Protein concentration 2.0 uM
[51] = target: Transcription initiation factor TFIID subunit 1 (Homo sapiens) (UniProt P21675); conditions: Compound concentration 10.0 uM, Protein concentration 2.0 uM; remark: listed apart in the source

Protein polybromo-1 (Homo sapiens), sequence (Q86U86 whole entry, the tested form may be a part): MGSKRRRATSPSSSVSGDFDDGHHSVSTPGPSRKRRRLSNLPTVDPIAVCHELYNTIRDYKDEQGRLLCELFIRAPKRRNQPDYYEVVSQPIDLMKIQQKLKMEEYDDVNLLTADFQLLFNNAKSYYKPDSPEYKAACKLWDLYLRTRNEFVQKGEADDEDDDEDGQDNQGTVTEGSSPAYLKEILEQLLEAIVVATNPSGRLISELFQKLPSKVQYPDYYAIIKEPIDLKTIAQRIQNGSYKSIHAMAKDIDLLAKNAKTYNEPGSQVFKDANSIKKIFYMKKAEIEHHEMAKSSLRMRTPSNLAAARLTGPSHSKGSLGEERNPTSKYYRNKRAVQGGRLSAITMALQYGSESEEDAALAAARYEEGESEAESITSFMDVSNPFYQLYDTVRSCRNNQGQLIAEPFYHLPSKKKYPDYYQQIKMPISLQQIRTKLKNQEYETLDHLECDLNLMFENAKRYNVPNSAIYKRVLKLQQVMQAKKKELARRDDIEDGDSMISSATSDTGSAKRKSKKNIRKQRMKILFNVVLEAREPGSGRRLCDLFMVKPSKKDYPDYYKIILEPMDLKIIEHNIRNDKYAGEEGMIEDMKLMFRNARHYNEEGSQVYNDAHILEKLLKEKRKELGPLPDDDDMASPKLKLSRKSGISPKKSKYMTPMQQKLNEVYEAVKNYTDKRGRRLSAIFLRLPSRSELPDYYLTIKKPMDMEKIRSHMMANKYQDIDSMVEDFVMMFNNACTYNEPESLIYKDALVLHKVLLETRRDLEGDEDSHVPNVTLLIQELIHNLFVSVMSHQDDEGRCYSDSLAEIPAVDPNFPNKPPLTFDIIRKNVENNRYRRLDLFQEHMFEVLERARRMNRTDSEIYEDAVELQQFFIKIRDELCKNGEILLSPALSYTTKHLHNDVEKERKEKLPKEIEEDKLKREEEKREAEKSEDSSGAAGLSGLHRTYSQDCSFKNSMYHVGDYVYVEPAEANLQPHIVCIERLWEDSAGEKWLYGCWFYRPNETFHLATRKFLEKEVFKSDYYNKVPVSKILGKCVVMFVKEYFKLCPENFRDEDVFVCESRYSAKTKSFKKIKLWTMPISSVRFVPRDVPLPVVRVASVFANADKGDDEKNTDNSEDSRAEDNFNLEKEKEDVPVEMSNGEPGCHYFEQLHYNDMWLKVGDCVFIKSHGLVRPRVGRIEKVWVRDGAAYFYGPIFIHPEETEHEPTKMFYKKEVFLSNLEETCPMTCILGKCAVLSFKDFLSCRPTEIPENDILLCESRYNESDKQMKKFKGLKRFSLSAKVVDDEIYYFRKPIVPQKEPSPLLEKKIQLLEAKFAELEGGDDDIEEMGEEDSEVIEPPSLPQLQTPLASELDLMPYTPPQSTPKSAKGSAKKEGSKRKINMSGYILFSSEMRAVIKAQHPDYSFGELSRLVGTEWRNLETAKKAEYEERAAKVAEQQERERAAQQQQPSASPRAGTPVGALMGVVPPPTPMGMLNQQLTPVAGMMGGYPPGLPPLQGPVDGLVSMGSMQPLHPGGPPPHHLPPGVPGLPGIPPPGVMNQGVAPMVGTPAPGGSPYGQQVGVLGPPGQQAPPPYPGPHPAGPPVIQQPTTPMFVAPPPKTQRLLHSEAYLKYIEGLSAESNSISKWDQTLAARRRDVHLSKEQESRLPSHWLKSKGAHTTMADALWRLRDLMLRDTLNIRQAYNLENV

## COc1cc2c(cc1NS(=O)(=O)c1ccc(Br)cc1C)n(C)c(=O)n2C
[1]
  ΔTm: 1.45 °C
[2]
  ΔTm: 0.91 °C
[3]
  ΔTm: 0.28 °C
[4]
  ΔTm: 0.21 °C
[5]
  ΔTm: 0.79 °C and 1.4 °C
[6]
  ΔTm: 0.37 °C
[7]
  ΔTm: 0.36 °C
[8]
  ΔTm: 0.36 °C and 0.33 °C
[9]
  ΔTm: 0.96 °C
[10]
  ΔTm: 1.02 °C
[11]; Protein concentration 2.0 uM
  ΔTm: -0.61 °C
[11]; Protein concentration […]
  ΔTm: -0.23 °C
[12]
  ΔTm: 1.93 °C
[13]
  ΔTm: 0.47 °C
[14]
  ΔTm: 0.53 °C
[15]
  ΔTm: 0.53 °C
[16]
  IC50: 128 nM
[17]
  ΔTm: 0.64 °C
[18]
  ΔTm: 1.48 °C
[19]
  ΔTm: 1.16 °C and 2.05 °C
[20]
  ΔTm: 1.22 °C and 1.19 °C
[21]
  ΔTm: 0.15 °C
[22]
  ΔTm: 0.5 °C
[23]
  ΔTm: 2.03 °C
[24]
  ΔTm: 0.53 °C
[25]
  ΔTm: 1.67 °C
[26]
  ΔTm: 1.85 °C and 3.4 °C
[27]
  ΔTm: 3.15 °C and 3.42 °C
Peregrin (Homo sapiens) [28]
  ΔTm: 7.61 °C and 6.99 °C and 6.03 °C
[29]
  ΔTm: 0.87 °C
[30]
  inhibition: 9.06%
[31]
  ΔTm: 0.36 °C
[32]
  ΔTm: 1.74 °C
[33]
  ΔTm: 1.5 °C
[34]
  ΔTm: -0.25 °C
[35]
  ΔTm: 1.42 °C
[36]
  ΔTm: 1.07 °C
[37]
  ΔTm: -1.08 °C and 1.68 °C
[38]
  ΔTm: 0.32 °C
[39]
  ΔTm: 1.31 °C
[40]
  ΔTm: 1.41 °C
[41]
  ΔTm: 0.57 °C
[42]
  ΔTm: 0.82 °C
[43]
  ΔTm: 0.5 °C
[44]
  ΔTm: 0.82 °C
[45]
  ΔTm: -0.9 °C and 1.4 °C
[46]
  ΔTm: 0.38 °C
[47]
  ΔTm: 1.19 °C
Peregrin (Homo sapiens) [48]
  ΔTm: 0.46 °C and 0.95 °C
[49]
  ΔTm: 0.35 °C
[50]
  ΔTm: 1.14 °C
[51]
  ΔTm: 0.35 °C
